How the values were obtained:
Assay type in all cases: cell-based, human
hEAAT2 transcription = assay: Nuclear run-on assay of hEAAT2 transcription in PHFA; details: 7-day treatment
Protocol: FIG. 4A-D. Effect of modulators of hEAAT2 activity on hEAAT2 expression and hEAAT2 promoter activity in PHFA. A. A Northern analysis of hEAAT2 and GAPDH mRNA expression following treatment with EGF (30 ng/ml), TGF-α (30 ng/ml), dbcAMP (200 μM, bromo-cAMP (100 μM) or TNF-α (200 U/ml) for 7 days. B. Nuclear run-on assays determining the relative rates of hEAAT2 and GAPDH transcription as a function of 7-day treatment with the same concentrations of the indicated agents. C. A time course of mRNA expression of hEAAT2 and GAPDH following treatment with EGF, bromo-cAMP or TNF-α (same concentrations as in A.). D. Fold luciferase activity in PHFA transfected with flhEAAT2Prom-luc or various deletion mutants of hEAAT2 and non-transfected controls treated with the indicated compounds for four days.
Primer Extension Analysis and Nuclear Run-on Assays. Primer extension assays were performed as described (Su et al., 2000, Oncogene 19(30):3411-3421). A primer with the sequence 5′-[…]-3′ (SEQ ID NO:6) complementary to the 5′ UTR of the hEAAT2 cDNA was used for this assay. Nuclear run-on assays were performed as described (Su et al., 1997, Proc Natl Acad Sci USA 94(17):9125-9130).
To examine whether stimulation of hEAAT2 expression involves transcriptional changes, nuclear run-on assays were performed.

hEAAT2 promoter [1] = assay: hEAAT2 promoter luciferase assay of agents in H4 glioma cells (FIG. 12); details: H4 malignant glioma cells; 10 μM
Protocol: (§1) FIG. 12. Effect of various agents on hEAAT2 promoter activity in H4 human malignant glioma cells. A: ceftriaxone; B: amoxicillin; C: chloramphenicol; D: thiamphenicol; E: vancomycin; F: glycine; G: glutamate; H: DMSO; I: dibutyryl cAMP. H4 is a rare clone of malignant glioma cells that support hEAAT2 promoter activity. H4 cells were seeded at 5×10^4 cells/35-mm plate. Twenty-four h later cells were untreated (CON) or received the indicated compound at a final concentration of 10 μM. Forty-eight h later the cells were transfected with a FL pGL3/EAAT2 luciferase reporter construct (5 μg) plus a pSVβGalactosidase construct (1 μg) using the calcium phosphate precipitation method (Su et al. 2003, Proc. Natl. Acad. Sci. USA 100:1955-1960). After an additional 48 h, cell lysates were prepared and luciferase activity was determined using the Luciferase Assay System Kit (Promega, E1501) and luminescence determined using a luminometer (Turner Designs, TD20/20) (Su et al. 2003, Proc. Natl. Acad. Sci. USA 100:1955-1960). Data presented are the average of 3 independent plates±S.D. Qualitatively similar results were obtained in 2 additional experiments.
as §1, with “H4, the third cell line examined,” for “FIG. 12. Effect of various agents on hEAAT2 promoter activity in H4 human malignant glioma cells. A: ceftriaxone; B: amoxicillin; C: chloramphenicol; D: thiamphenicol; E: vancomycin; F: glycine; G: glutamate; H: DMSO; I: dibutyryl cAMP. H4”, “activity. In the studies shown in FIG. 12,” for “activity.”

hEAAT2 promoter [2] = assay: hEAAT2 promoter luciferase assay of agents in PHFA-Im (FIG. 11); details: 10 μM
Protocol: as §1, with “FIG. 11.” for “FIG. 12.”, “in immortalized primary” for “in H4”, “human fetal astrocytes (PHFA-Im).” for “human malignant glioma cells.”, “cAMP. PHFA-Im” for “cAMP. H4”, “a human telomerase-immortalized” for “a rare”, “of primary human fetal astrocytes. PHFA-Im” for “of malignant glioma cells that support hEAAT2 promoter activity. H4”
as §1, with “The effects” for “FIG. 12. Effect”, “these same” for “various”, “also were examined” for “on hEAAT2 promoter activity”, “two other cell lines to confirm the generality of the findings. […] PHFA-Im” for “H4 human malignant glioma cells. A: ceftriaxone; B: amoxicillin; C: chloramphenicol; D: thiamphenicol; E: vancomycin; F: glycine; G: glutamate; H: DMSO; I: dibutyryl cAMP. H4”, “cell line developed from a clonal isolate” for “rare clone”, “a primary human fetal astrocyte immortalized by transformation with the reverse transcriptase subunit of human telomerase. PHFA-Im” for “malignant glioma cells that support hEAAT2 promoter activity. H4”

CCCC(=O)Nc1ncnc2c1ncn2[C@@H]1O[C@@H]2COP(=O)(O)O[C@H]2[C@H]1OC(=O)CCC [dbcAMP, dibutyryl cyclic AMP]
relative rate of transcription of hEAAT2 RNA compared with GAPDH (hEAAT2 transcription): elevated
hEAAT2 promoter activity (hEAAT2 promoter [1]): potent stimulators
hEAAT2 promoter activity (hEAAT2 promoter [2]): potent stimulators
